Experimental data published in patent US11311523B2, “Pyridinone compound and use thereof” (KYUSHU UNIVERSITY, NATIONAL UNIVERSITY CORPORATION, priority 2015, dated 2022).

Experiments:
[1] = tested on: 3LL cells; test: inhibition of macropinocytosis (TMR-dextran uptake); assay type: cell-based, mouse
Description: (§1) Pharmacological Test 5 (Experiment of Inhibition of Macropinocytosis of Cancer Cells)
(§2) Macropinocytosis is a phenomenon in which cells take up various substances together with extracellular fluid while extending cellular membranes. Remodeling of actin cytoskeleton through Rac activity is known to be important.
(§3) One hundred and fifty microliters of 4×10^4 3LL cells or HT-1080 cells were seeded on the glass portion of fibronectin-coated glass-bottom culture dishes. After 16-hour culture at 37° C., the medium was changed to DMEM (serum free) and cultured for 24 hours to allow the cells to be serum-starved. Subsequently, the medium was changed to 2 mL of serum-free medium containing DMSO alone or DMSO in which each pyridinone compound was dissolved, followed by pretreatment for 1 hour. The final concentration of DMSO was adjusted to 0.2%.
(§4) The cells were added to 180 μL of medium with TMR-dextran (final concentration: 500 μg/mL)-containing DMEM (with 10% FBS) containing DMSO alone or DMSO in which a predetermined concentration of each pyridinone compound was dissolved, as in the case above, followed by incubation at 37° C. for 1 hour. Thereafter, the cells were fixed by 60-minute incubation at room temperature in a 4% paraformaldehyde solution. […] The macropinocytosis activity was measured based on the number of TMR-dextran spots per cell. […]

[2] = tested on: HT-1080 cells; test: as above; assay type: cell-based, human
Description: as §1, §2, §3, §4

[3] = tested on: mouse spleen T cells; test: T lymphocyte migration towards CCL21 (Transwell); assay type: cell-based; settings: FIG. 16(A)
From the text: Pharmacological Test. 6 (Evaluation on T Lymphocyte Migration)
Lymphocyte migration plays key roles in immune responses. T cell stimulation by chemokines, such as CCL21, induces actin cytoskeletal remodeling through Rac activation. This drives the cells to migrate towards the source of chemokines.
Therefore, the use of various pyridinone compounds in this assay system enables cell-level verification of DOCK1 selectivity.
Mouse spleen cells at a cell concentration of 1×10^7 cells/mL were precultured at 37° C. for 1 hour in 0.5% BSA-containing RPMI-1640 (Transwell medium) containing DMSO alone or DMSO in which each pyridinone compound was dissolved at a predetermined concentration.
Subsequently, 500 μL of Transwell medium containing 300 ng/mL of CCL21 and DMSO in which each pyridinone compound was dissolved at a predetermined concentration was added to a 24-well plate. […]
After 2-hour incubation at 37° C., the cells that migrated to the lower chamber were collected and stained with PE-labeled anti-Thy1.2 antibody (53-2-1, BD Pharmingen) and APC-labeled anti-B220 antibody (RA-6B-2, eBioscience). The percentage (%) of the migrated cells was calculated by dividing the number of Thy1.2^+ cells (T cells) in the lower chamber by the number of Thy1.2^+ cells (T cells) placed into the Transwell inserts. […]

| SMILES | inhibition of macropinocytosis [1] | inhibition of macropinocytosis [2] | CCL21-stimulated T cell migration [3] |
| --- | --- | --- | --- |
| O=C(Cn1cc(S(=O)(=O)N2CCCC2)ccc1=O)c1ccc(-c2ccc3ccccc3c2)cc1 [TS-28, 1-(2-(4-(naphthalen-2-yl)phenyl)-2-oxoethyl)-5-(pyrrolidin-1-ylsulfonyl)pyridin-2(1H)-one] | inhibit macropinocytosis in 3LL cells and HT-1080 cells in a concentration-dependent manner | inhibit macropinocytosis in 3LL cells and HT-1080 cells in a concentration-dependent manner | did not affect |
| O=C(Cn1cc(S(=O)(=O)N2CCCC2)ccc1=O)c1ccc(-c2cccc(C(F)(F)F)c2)cc1 [TS-45, 1-(2-oxo-2-(3′-(trifluoromethyl)-[1,1′-biphenyl]-4-yl)ethyl)-5-(pyrrolidin-1-ylsulfonyl)pyridin-2(1H)-one] | inhibit macropinocytosis in 3LL cells and HT-1080 cells in a concentration-dependent manner | inhibit macropinocytosis in 3LL cells and HT-1080 cells in a concentration-dependent manner | did not affect |
